One assay has as its target T1, Butyrylcholinesterase (Rattus norvegicus, UniProt Q9JKC1).
Experiment: not given
T1 sequence (Q9JKC1 whole entry): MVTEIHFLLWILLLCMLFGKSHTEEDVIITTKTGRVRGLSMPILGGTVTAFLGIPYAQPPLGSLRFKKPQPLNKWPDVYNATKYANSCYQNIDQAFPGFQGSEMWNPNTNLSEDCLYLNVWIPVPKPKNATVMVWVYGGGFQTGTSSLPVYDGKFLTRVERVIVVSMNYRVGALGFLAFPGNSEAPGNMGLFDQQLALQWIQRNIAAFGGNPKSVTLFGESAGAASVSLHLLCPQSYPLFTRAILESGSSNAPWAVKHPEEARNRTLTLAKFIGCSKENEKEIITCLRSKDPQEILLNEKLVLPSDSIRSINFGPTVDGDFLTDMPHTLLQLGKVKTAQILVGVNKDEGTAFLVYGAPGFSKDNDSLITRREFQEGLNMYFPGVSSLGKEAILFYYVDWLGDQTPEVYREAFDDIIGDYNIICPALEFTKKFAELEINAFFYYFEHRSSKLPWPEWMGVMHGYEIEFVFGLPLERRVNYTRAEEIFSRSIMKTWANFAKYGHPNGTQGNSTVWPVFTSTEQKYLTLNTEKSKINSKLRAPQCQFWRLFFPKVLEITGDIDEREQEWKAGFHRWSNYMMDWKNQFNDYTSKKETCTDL
One may read the IC50 as the point on the concentration scale where inhibition reaches its midpoint. Low readings indicate greater potency, high ones weaker potency. `O=C(Nc1ccc2c(c1)C(=O)N(CCC1CCN(Cc3ccccc3)CC1)C2=O)c1ccccc1` displayed a half-inhibitory concentration (IC50) of 42300 nM.

The target in the next assay is T1, Butyrylcholinesterase. Nature of the assay: In vitro inhibitory concentration against butyrylcholinesterase (BuChE) obtained from rat plasma. The format is cell-free.
Consider `CNC(=O)Oc1ccc2c(c1)[C@]1(C)CCN(C)[C@@H]1N2C` [PHYSOSTIGMINE], for which the half-maximal inhibitory concentration (IC50) was 8.1 nM.

The target of the next assay is T2, Acetylcholinesterase (Mus musculus, UniProt P21836).
T2 sequence (P21836 whole entry): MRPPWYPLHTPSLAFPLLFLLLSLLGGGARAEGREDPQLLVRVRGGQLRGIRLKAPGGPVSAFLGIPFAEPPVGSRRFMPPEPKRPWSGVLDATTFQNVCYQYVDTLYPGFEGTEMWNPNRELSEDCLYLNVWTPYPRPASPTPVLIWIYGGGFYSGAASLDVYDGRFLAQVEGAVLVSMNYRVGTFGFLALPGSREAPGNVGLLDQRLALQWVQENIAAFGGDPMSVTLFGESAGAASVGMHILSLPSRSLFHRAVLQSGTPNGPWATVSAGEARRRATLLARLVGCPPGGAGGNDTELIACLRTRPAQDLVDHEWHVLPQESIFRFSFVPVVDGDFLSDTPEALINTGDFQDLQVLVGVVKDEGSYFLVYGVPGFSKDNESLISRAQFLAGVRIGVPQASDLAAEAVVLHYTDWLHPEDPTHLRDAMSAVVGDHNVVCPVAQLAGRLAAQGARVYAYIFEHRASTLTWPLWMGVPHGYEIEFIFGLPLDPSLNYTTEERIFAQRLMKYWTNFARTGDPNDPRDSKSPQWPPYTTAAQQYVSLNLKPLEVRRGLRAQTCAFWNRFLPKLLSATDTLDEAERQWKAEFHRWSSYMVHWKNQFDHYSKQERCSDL
Nature of the assay: biochemical.
Description: In vitro inhibitory concentration against acetylcholinesterase (AChE) obtained from mouse brain homogenate.
`CC(=O)N(CCC1CCN(Cc2ccccc2)CC1)c1ccc(F)cc1`: the IC50 worked out at 205 nM.

The molecule `O=C(Nc1ccc2c(c1)C(=O)N(CCC1CCN(Cc3ccccc3)CC1)C2=O)c1ccccc1` registered an IC50 of 1.2 nM.

As for `O=C1CCCCN1CCC1CCN(Cc2ccccc2)CC1`, the IC50 was 270 nM.

In turn, `O=C(c1ccc([N+](=O)[O-])cc1)N(CCC1CCN(Cc2ccccc2)CC1)c1ccccc1` showed a 50% inhibitory concentration (IC50) of 5.4 nM.

As for `COc1ccc(CN2CCC(CCN3C(=O)c4ccc([N+](=O)[O-])cc4C3=O)CC2)cc1`, the IC50 worked out at 440 nM.

Regarding `COc1ccc(C(=O)N(CCC2CCN(Cc3ccccc3)CC2)c2ccccc2)cc1`, the IC50 came to 590 nM.

Molecule `COc1cccc(N(CCC2CCN(Cc3ccccc3)CC2)C(C)=O)c1` had an IC50 of 46 nM.

For `CNC(=O)Oc1ccc2c(c1)[C@]1(C)CCN(C)[C@@H]1N2C` [PHYSOSTIGMINE], half-maximal inhibition (IC50) required 0.69 nM.

Molecule `O=C1c2ccccc2C(=O)N1CCC1CCN(Cc2ccccc2)CC1` came in with an IC50 of 30 nM.

Molecule `O=C1c2ccc([N+](=O)[O-])cc2C(=O)N1CC1CCN(Cc2ccccc2)CC1` displayed a half-inhibitory concentration (IC50) of 3000 nM.

Consider `Nc1cccc2c1C(=O)N(CCC1CCN(Cc3ccccc3)CC1)C2=O`, for which the IC50 was 11 nM.

In the case of `O=C1c2ccc([N+](=O)[O-])cc2C(=O)N1CCC1CCN(Cc2ccccc2)CC1`, the IC50 stood at 12.5 nM. The IC50 values of the last two molecules are within 1.5-fold of each other.

The molecule `O=C1c2ccccc2CN1CCC1CCN(Cc2ccccc2)CC1` had an IC50 of 98 nM.

Turning to `O=C1Cc2ccccc2C(=O)N1CCC1CCN(Cc2ccccc2)CC1`, the half-inhibitory concentration (IC50) is 23 nM.

As to `CC(=O)N(CCC1CCN(Cc2ccccc2)CC1)c1cccc(F)c1`, half-maximal inhibition (IC50) required 65 nM. Compared with the last molecule, the IC50 is about 2.8-fold higher.

For `CN1CCC(CCN2C(=O)c3ccc([N+](=O)[O-])cc3C2=O)CC1`, the half-maximal inhibitory concentration (IC50) came to 6800 nM.

For the molecule `O=C1c2ccc([N+](=O)[O-])cc2C(=O)N1C1CCN(Cc2ccccc2)CC1`, inhibition was half-maximal at 27000 nM (IC50).

`CCC(=O)N(CCC1CCN(Cc2ccccc2)CC1)c1ccccc1` returned an IC50 of 830 nM.

In turn, `O=c1c2ccccc2ccn1CCC1CCN(Cc2ccccc2)CC1` came in with a concentration for half-maximal inhibition (IC50) of 1100 nM.

The molecule `CN(CCC1CCN(Cc2ccccc2)CC1)C(=O)c1ccc(S(=O)(=O)Cc2ccccc2)cc1` showed an IC50 of 0.56 nM.

With `CC(=O)N(CCC1CCN(Cc2ccccc2)CC1)c1ccncc1`, the half-inhibitory concentration (IC50) stood at 108 nM.

For the molecule `O=C1c2ccc([N+](=O)[O-])cc2C(=O)N1CCC1CCN(Cc2ccc(Cl)cc2)CC1`, the IC50 came out at 240 nM.

`O=C(Nc1cccc2c1C(=O)N(CCC1CCN(Cc3ccccc3)CC1)C2=O)c1ccccc1` yielded an IC50 of 340 nM.

For the molecule `COc1ccc(N(CCC2CCN(Cc3ccccc3)CC2)C(C)=O)cc1`, 700 nM corresponded to half-maximal inhibition (IC50).

`O=C(C1CCCCC1)N(CCC1CCN(Cc2ccccc2)CC1)c1ccccc1` showed an IC50 of 9400 nM.

Molecule `c1ccc(CN2CCC(CCN3CCc4ccccc4C3)CC2)cc1` yielded an IC50 of 1600 nM.

As for `CC(=O)N(C)CCC1CCN(Cc2ccccc2)CC1`, the IC50 was 660 nM.

With `O=c1c2ccccc2ncn1CCC1CCN(Cc2ccccc2)CC1`, half-maximal inhibition (IC50) required 1200 nM.
